In brackets after ≈: the same amount, converted by molar mass. Peptide text beside a SMILES is read from it.

The MIC is the lowest concentration found to suppress growth. A high value points to weaker potency.

In one series the test system is Klebsiella pneumoniae. As to the kind of experiment: Antimicrobial activity against Klebsiella pneumoniae IS 1400 incubated for 16 to 18 hrs by fluorescence microplate reader analysis. The following applies: time 16-18 hrs. The format is functional.
A short description of series [1]: Immunomodulatory activity in mouse peritoneal macrophage assessed as increase in IL-10 mRNA level at 20 ug/ml measured after 6 hrs by qRT-PCR analysis relative to control. The format is functional. The following applies: dose 20 µg/ml.
The nature of series [2]: Toxicity in Kunming mouse assessed as effect on TNF-alpha levels at 10 mg/kg, ip measured after 5 hrs by ELISA. The format is organism-based. The following applies: in vivo. A general note: An ELISA detects its analyte on a solid surface through an enzyme-linked reagent.
The nature of series [3]: Toxicity in Kunming mouse assessed as effect on IL-6 levels at 10 mg/kg, ip measured after 5 hrs by ELISA. The format is organism-based. The following applies: in vivo.

On to `CC[C@H](C)[C@H](NC(=O)[C@@H]1CCCN1C(=O)[C@@H](NC(=O)[C@@H](NC(=O)CNC(=O)CNC(=O)[C@@H](NC(=O)[C@H](Cc1ccccc1)NC(=O)[C@@H](NC(=O)[C@H](CCCCN)NC(=O)[C@@H](NC(=O)[C@H](CCCCN)NC(=O)[C@H](CCCCN)NC(=O)[C@H](Cc1ccccc1)NC(=O)[C@@H](NC(=O)[C@H](CCCCN)NC(=O)[C@H](CCCNC(=N)N)NC(=O)[C@H](Cc1ccccc1)NC(=O)CNC(=O)[C@H](CCCCN)NC(=O)[C@H](CCCCN)NC(=O)[C@@H](NC(=O)[C@H](CCCCN)NC(=O)[C@H](CCCNC(=N)N)NC(=O)[C@H](Cc1ccccc1)NC(=O)[C@H](Cc1ccccc1)NC(=O)[C@H](CCCCN)NC(=O)[C@H](CCCCN)NC(=O)[C@H](Cc1ccccc1)NC(=O)[C@H](CCCNC(=N)N)NC(=O)[C@@H](N)CCCCN)[C@@H](C)CC)[C@@H](C)CC)[C@@H](C)O)[C@@H](C)CC)[C@@H](C)CC)[C@@H](C)O)[C@@H](C)CC)C(=O)O` (H-KRFKKFFRKIKKGFRKIFKKTKIFIGGTIPI-OH), for which the MIC in the series on Klebsiella pneumoniae came to 1.17 µg/mL (≈ 0.308 µM). Further, the “fold change (FC)” value in series [1] was 8. The Activity result in series [2] and in series [3] was “Non-Toxic” in each case.

The values are drawn from ChEMBL document CHEMBL4715817, “Python Cathelicidin CATHPb1 Protects against Multidrug-Resistant Staphylococcal Infections by Antimicrobial-Immunomodulatory Duality” (J Med Chem, 2018).
